Laboratory results: publication PMC11783063, “Design, synthesis, and apoptotic antiproliferative action of new benzimidazole/1,2,3-triazole hybrids as EGFR inhibitors” (Frontiers in Chemistry, 2025)

Tests used:
Format in all cases: cell-based, human
[1] = tested on: MCF-7 (breast cancer cell line); experiment: Antiproliferative assay, MCF-7; settings: Homo sapiens, MCF7; read-out: Antiproliferative activity IC50 ± SEM, MCF-7
Excerpt: Refer to Supplementary Appendix A for more information.
DMSO (0.1%) was used as control.

[2] = tested on: caspase-3; experiment: Caspase-3 activation assay in MCF-7 cells; settings: for Caspase-3 Conc: compound at its IC50 concentration; for Caspase-3 Fold change: vs untreated control
Excerpt: Cells experience apoptosis in reaction to specific signaling cues, resulting in significant modifications. […] They decompose vital cellular components, including nuclear proteins, such as DNA repair enzymes and structural proteins within the cytoskeleton, essential for optimal cellular function.
Supplementary Appendix A provides more details.
Allow all reagents to reach room temperature before use. Gently mix all liquid reagents prior to use. Determine the number of 8-well strips needed for the assay. Insert these in the frame(s) for current use. Add 100 μl of the Standard Diluent Buffer to the zero standard wells. Well(s) reserved for chromogen blank should be left empty. Add 100 μl of standards and controls or diluted samples to the appropriate microtiter wells. The sample dilution chosen should be optimized for each experimental system. Tap gently on the side of plate to mix. Cover wells with plate cover and incubate for 2 hours at room temperature. Thoroughly aspirate or decant solution from wells and discard the liquid, Wash wells 4 times. […] Tap gently on the side of the plate to mix. Cover plate with plate cover and incubate for 1 hour at room temperature. Thoroughly aspirate or decant solution from wells and discard the liquid, Wash wells 4 times. Add 100 μl Anti-Rabbit IgG HRP Working Solution to each well except the chromogen blank(s). Prepare the working dilution as described in Preparing IgG HRP. Cover wells with the plate cover and incubate for 30 minutes at room temperature. Thoroughly aspirate or decant solution from wells and discard the liquid. Wash wells 4 times. Add 100 μl of Stabilized Chromogen to each well. The liquid in the wells will begin to turn blue. Incubate for 30 minutes at room temperature and in the dark. The incubation time for chromogen substrate is often determined by the microtiter plate reader used. […] The O.D. values should be monitored, and the substrate reaction stopped before the O.D. of the positive wells exceeds the limits of the instrument. The O.D. values at 450 nm can only be read after the Stop Solution has been added to each well. […] Add 100 μl of Stop Solution to each well. Tap side of plate gently to mix. The solution in the wells should change from blue to yellow. Read the absorbance of each well at 450 nm having blanked the plate reader against a chromogen blank composed of 100 μl each of Stabilized Chromogen and Stop Solution. Read the plate within 2 hours after adding the Stop Solution. Use a curve fitting software to generate the standard curve. […] Read the concentrations for unknown samples and controls from the standard curve. Multiply value(s) obtained for sample(s) by the appropriate dilution factor to correct for the dilution in step 3.

[3] = tested on: Bcl-2; experiment: Bcl-2 inhibition assay in MCF-7 cells; settings: for Bcl-2 Conc: compound at its IC50
Method: The current study supplied compounds 6i and 10e to breast (MCF-7) cancer cell lines at their respective IC50 values. This led to a notable elevation of pro-apoptotic Bax expression, with a fold increase of 34 for compound 6i and 36 for compound 10e.
Compounds 6i and 10e were assessed for their ability to activate caspase-3, caspase-8, and Bax, as well as to downregulate the anti-apoptotic protein Bcl2 in the MCF-7 breast cancer cell line ([Abdelbaset et al., 2019]). Supplementary Appendix A provides more details.
Mix all the reagents thoroughly without foaming before use. Wash the microwells twice with approximately 300 μL Wash Buffer per well with thorough aspiration of microwell contents between washes. Take caution not to scratch the surface of the microwells. After the last wash, empty the wells and tap microwell strips on an absorbent pad or paper towel to remove excess Wash Buffer. Use the microwell strips immediately after washing or place upside down on a wet absorbent paper for not longer than 15 minutes. […] Add 100 μL of Sample Diluent in duplicate to all standard wells and to the blank wells. Prepare standard (1:2 dilution) in duplicate ranging from 32 ng/mL to 0.5 ng/mL. Add 100 μL of Sample Diluent, in duplicate, to the blank wells. Add 80 μL of Sample Diluent, in duplicate, to the sample wells. Add 20 μL of each Sample, in duplicate, to the designated wells. Add 50 μL of diluted biotin-conjugate to all wells, including the blank wells. Cover with a plate cover and incubate at room temperature, on a microplate shaker at 100 rpm if available, for 2 hours. Remove plate cover and empty the wells. Wash microwell strips 3 times as described in step 2. Add 100 μL of diluted Streptavidin-HRP to all wells, including the blank wells. Cover with a plate cover and incubate at room temperature, on a microplate shaker at 100 rpm if available, for 1 hour. Remove the plate cover and empty the wells. Wash microwell strips 3 times as described in step 2. Proceed to the next step. Pipette 100 μl of mixed TMB Substrate Solution to all wells, including the blanks. Incubate the microwell strips at room temperature (18° to 25°C) for about 15 minutes, if available on a rotator set at 100 rpm. Avoid direct exposure to intense light. The point, at which the substrate reaction is stopped, is often determined by the ELISA reader. Many ELISA readers record absorbance only up to 2.0 O.D. Therefore, the color development within individual microwells must be watched by the person running the assay and the substrate reaction stopped before positive wells are no longer properly detectable. Stop the enzyme reaction by quickly pipetting 100 μL of Stop Solution into each well, including the blank wells. It is important that the Stop Solution is spread quickly and uniformly throughout the microwells to completely inactivate the enzyme. Results must be read immediately after the Stop Solution is added or within one hour if the microwell strips are stored at 2 - 8°C in the dark. Read the absorbance of each microwell on a spectrophotometer using 450 nm as the primary wavelength.

Compound | IC50 [1] [nM] | Caspase-3 Conc [2] [pg/mL] | Caspase-3 Fold change [2] | Bcl-2 Conc [3] [ng/mL] | Bcl-2 Fold reduction ([3]; vs untreated control)
NS(=O)(=O)c1ccc(-n2cc(CSc3nc4ccccc4[nH]3)nn2)cc1 [6i, 4-(4-(((1H-benzimidazol-2-yl)thio)methyl)-1H-1,2,3-triazol-1-yl)benzene-sulfonamide] | 28 ± 2 | 590 ± 5 | 9 | 0.85 | –
O=[N+]([O-])c1cccc(-n2cc(Cn3c(SCc4ccccc4)nc4ccccc43)nn2)c1 [10e] | 24 ± 2 | 778 ± 6 | 12 | 0.70 | ~7
